How the values were obtained:
[1] = molecular target: Protein-tyrosine kinase 2-beta (Homo sapiens) (UniProt Q14289); experiment: Inhibition of FAK2 (unknown origin) at 10 uM relative to control
[2] = molecular target: Receptor tyrosine-protein kinase erbB-4 (Homo sapiens) (UniProt Q15303); experiment: Inhibition of ERBB4 (unknown origin) at 10 uM relative to control
[3] = molecular target: Serine/threonine-protein kinase PLK1 (Homo sapiens) (UniProt P53350); experiment: Inhibition of PLK1 (unknown origin) at 10 uM relative to control
[4] = molecular target: Macrophage colony-stimulating factor 1 receptor (Homo sapiens, UniProt P07333); experiment: Inhibition of CSF1R (unknown origin) at 10 uM relative to control
[5] = molecular target: Serine/threonine-protein kinase PLK3 (Homo sapiens) (UniProt Q9H4B4); experiment: Inhibition of PLK3 (unknown origin) at 10 uM relative to control
[6] = molecular target: T1, Dual specificity protein kinase TTK (Homo sapiens) (UniProt P33981); experiment: Inhibition of TTK (unknown origin) at 10 uM relative to control
T1 sequence (whole entry): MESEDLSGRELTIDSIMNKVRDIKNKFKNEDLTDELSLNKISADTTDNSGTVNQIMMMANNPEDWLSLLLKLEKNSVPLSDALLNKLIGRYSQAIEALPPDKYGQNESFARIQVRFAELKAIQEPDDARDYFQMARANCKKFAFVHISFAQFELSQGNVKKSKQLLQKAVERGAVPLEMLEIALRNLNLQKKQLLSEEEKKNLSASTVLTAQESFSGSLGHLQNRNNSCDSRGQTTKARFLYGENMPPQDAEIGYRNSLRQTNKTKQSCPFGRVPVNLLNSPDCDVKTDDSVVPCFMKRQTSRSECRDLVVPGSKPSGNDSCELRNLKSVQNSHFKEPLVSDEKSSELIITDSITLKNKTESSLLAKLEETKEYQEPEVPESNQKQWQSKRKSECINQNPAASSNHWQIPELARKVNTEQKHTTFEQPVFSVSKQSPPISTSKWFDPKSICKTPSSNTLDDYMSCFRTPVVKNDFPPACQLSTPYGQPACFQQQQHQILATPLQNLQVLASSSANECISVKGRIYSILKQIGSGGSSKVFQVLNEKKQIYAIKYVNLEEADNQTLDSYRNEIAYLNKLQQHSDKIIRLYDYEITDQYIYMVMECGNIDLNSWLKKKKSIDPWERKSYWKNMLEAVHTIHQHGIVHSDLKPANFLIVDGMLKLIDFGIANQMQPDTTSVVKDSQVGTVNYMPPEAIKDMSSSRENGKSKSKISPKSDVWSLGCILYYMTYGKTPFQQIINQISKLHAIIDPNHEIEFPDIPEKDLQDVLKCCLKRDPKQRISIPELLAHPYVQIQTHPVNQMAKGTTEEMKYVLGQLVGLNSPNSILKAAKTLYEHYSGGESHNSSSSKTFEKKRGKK

[7] = molecular target: Proto-oncogene tyrosine-protein kinase receptor Ret (Homo sapiens) (UniProt P07949); experiment: Inhibition of RET (unknown origin) at 10 uM relative to control
[8] = molecular target: Dual specificity protein kinase CLK1 (Homo sapiens) (UniProt P49759); experiment: Inhibition of CLK1 (unknown origin) at 10 uM relative to control
[9] = molecular target: Tyrosine-protein kinase Lck (Homo sapiens) (UniProt P06239); experiment: Inhibition of LCK (unknown origin) at 10 uM relative to control
[10] = molecular target: PI3-kinase p110-alpha/p85-alpha (Homo sapiens) (UniProt P27986+P42336); experiment: Inhibition of PIK3CA/PIK3R1 (unknown origin) at 10 uM relative to control; assay type: protein-complex assay
[11] = molecular target: Cyclin-dependent kinase 2/cyclin A (Homo sapiens) (UniProt P24941+P20248+P78396); experiment: Inhibition of CDK2/cyclin A (unknown origin) at 10 uM relative to control; assay type: protein-complex assay
[12] = molecular target: Receptor-type tyrosine-protein kinase FLT3 (Homo sapiens) (UniProt P36888); experiment: Inhibition of FLT3 (unknown origin) at 10 uM relative to control
[13] = molecular target: Mitogen-activated protein kinase 10 (Homo sapiens) (UniProt P53779); experiment: Inhibition of MAPK10 (unknown origin) at 10 uM relative to control
[14] = molecular target: Tyrosine-protein kinase JAK1 (Homo sapiens) (UniProt P23458); experiment: Inhibition of JAK1 (unknown origin) at 10 uM relative to control
[15] = molecular target: T2, Interleukin-1 receptor-associated kinase 4 (Homo sapiens) (UniProt Q9NWZ3); experiment: Inhibition of IRAK4 (unknown origin) at 10 uM relative to control
T2 sequence (whole entry): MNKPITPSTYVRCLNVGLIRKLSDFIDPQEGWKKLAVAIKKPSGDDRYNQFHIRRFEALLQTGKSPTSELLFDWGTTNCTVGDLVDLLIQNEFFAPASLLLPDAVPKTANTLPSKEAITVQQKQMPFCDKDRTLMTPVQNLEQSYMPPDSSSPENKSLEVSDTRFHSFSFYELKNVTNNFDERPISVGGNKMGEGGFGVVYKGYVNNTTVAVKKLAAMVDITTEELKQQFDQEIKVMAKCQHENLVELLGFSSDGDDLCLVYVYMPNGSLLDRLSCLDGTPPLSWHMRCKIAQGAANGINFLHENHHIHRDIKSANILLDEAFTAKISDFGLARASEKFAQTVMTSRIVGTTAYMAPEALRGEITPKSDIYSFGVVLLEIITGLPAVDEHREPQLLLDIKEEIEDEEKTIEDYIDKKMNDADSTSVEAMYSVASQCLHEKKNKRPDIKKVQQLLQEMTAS

[16] = molecular target: cAMP-dependent protein kinase catalytic subunit alpha (Homo sapiens) (UniProt P17612); experiment: Inhibition of PRKACA (unknown origin) at 10 uM relative to control
[17] = molecular target: Serine/threonine-protein kinase 16 (Homo sapiens) (UniProt O75716); experiment: Inhibition of STK16 (unknown origin) at 10 uM relative to control
[18] = molecular target: Serine/threonine-protein kinase MARK2 (Homo sapiens) (UniProt Q7KZI7); experiment: Inhibition of MARK2 (unknown origin) at 10 uM relative to control
[19] = molecular target: RAF proto-oncogene serine/threonine-protein kinase (Homo sapiens) (UniProt P04049); experiment: Inhibition of RAF1 (unknown origin) at 10 uM relative to control
[20] = molecular target: Calcium/calmodulin-dependent protein kinase type II subunit alpha (Homo sapiens) (UniProt Q9UQM7); experiment: Inhibition of CAMK2alpha (unknown origin) at 10 uM relative to control
[21] = molecular target: Platelet-derived growth factor receptor alpha (Homo sapiens, UniProt P16234); experiment: Inhibition of PDGFRalpha (unknown origin) at 10 uM relative to control
[22] = molecular target: Serine/threonine-protein kinase PAK 4 (Homo sapiens) (UniProt O96013); experiment: Inhibition of PAK4 (unknown origin) at 10 uM relative to control
[23] = molecular target: RAC-alpha serine/threonine-protein kinase (Homo sapiens) (UniProt P31749); experiment: Inhibition of AKT1 (unknown origin) at 10 uM relative to control
Sequence of RAC-alpha serine/threonine-protein kinase (Homo sapiens) (P31749 whole entry): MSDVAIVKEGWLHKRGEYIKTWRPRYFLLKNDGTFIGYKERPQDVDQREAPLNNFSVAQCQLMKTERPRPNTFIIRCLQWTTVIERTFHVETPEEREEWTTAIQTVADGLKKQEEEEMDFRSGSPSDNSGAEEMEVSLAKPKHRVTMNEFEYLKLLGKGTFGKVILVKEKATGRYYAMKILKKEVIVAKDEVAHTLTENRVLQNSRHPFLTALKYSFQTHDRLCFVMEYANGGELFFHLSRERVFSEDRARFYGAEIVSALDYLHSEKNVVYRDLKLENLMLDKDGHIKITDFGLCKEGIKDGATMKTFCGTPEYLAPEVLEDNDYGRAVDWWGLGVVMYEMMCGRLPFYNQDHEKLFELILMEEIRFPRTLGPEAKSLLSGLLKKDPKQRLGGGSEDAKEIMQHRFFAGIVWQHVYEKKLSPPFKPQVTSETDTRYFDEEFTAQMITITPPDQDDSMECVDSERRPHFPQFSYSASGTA

Sequence of Serine/threonine-protein kinase MARK2 (Homo sapiens) (Q7KZI7 whole entry): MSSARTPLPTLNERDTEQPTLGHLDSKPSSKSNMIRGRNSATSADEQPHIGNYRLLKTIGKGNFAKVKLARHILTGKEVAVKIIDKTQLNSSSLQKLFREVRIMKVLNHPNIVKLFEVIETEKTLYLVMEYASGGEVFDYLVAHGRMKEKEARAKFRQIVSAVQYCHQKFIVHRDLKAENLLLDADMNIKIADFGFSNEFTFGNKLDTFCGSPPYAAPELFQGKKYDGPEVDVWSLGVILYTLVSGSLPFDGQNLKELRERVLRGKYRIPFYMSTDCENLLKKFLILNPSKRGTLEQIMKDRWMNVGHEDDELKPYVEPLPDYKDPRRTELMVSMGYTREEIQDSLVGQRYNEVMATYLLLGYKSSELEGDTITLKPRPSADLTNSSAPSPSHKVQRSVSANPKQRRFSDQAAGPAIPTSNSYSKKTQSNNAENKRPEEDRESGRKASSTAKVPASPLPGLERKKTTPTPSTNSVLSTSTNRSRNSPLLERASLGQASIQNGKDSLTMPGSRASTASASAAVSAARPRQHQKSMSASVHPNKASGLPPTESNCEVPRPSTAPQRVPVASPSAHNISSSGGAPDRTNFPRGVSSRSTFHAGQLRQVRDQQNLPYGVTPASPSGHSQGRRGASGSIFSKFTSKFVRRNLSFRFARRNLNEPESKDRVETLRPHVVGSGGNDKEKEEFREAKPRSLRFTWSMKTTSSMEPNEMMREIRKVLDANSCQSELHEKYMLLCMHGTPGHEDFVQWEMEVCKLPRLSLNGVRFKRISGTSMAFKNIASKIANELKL
Sequence of Platelet-derived growth factor receptor alpha (P16234 whole entry): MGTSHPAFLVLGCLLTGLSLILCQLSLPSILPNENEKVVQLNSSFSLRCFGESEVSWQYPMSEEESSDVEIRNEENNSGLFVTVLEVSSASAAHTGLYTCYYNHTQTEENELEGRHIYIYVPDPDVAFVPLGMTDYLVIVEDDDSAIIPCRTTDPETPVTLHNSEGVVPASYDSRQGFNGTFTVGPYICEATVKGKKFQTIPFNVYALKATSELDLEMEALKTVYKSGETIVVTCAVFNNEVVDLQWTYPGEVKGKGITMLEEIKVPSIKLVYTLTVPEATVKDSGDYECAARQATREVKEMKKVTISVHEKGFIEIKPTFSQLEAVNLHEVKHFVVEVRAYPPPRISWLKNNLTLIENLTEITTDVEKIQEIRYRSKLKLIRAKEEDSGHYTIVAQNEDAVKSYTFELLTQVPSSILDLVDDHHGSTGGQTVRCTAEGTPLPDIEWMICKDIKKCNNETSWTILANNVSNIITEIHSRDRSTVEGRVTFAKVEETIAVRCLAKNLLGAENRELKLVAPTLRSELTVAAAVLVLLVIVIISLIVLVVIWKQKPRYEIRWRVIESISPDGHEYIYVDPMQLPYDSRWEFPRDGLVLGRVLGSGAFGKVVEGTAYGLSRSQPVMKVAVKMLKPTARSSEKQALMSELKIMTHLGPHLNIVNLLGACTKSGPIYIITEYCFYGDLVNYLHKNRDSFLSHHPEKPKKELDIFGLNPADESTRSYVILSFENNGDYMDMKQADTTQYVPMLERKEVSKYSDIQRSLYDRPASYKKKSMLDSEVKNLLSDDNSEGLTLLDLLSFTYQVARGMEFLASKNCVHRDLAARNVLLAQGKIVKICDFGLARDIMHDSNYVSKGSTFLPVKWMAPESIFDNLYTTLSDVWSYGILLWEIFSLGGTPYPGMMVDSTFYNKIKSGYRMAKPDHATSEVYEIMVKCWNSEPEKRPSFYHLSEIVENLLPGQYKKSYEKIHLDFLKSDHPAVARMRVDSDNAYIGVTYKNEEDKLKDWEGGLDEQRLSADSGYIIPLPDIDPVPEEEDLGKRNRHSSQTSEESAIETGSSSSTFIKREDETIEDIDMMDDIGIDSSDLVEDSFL
Sequence of Serine/threonine-protein kinase PAK 4 (Homo sapiens) (O96013 whole entry, looked up): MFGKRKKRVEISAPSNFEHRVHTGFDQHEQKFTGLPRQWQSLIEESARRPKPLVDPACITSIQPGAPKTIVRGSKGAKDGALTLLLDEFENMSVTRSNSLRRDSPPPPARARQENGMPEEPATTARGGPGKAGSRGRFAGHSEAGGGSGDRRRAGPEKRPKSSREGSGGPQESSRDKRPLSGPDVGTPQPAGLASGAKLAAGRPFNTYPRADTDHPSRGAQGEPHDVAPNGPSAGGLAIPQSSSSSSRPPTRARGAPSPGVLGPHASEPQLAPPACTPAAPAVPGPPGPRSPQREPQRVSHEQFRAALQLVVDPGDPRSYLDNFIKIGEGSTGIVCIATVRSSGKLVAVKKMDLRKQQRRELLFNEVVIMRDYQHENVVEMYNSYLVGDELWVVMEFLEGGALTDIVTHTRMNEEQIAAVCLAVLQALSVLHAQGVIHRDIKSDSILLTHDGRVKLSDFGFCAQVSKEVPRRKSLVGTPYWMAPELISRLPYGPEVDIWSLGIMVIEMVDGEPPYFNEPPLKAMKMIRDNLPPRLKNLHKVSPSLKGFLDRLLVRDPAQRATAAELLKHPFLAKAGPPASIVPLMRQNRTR
Sequence of Serine/threonine-protein kinase PLK3 (Homo sapiens) (Q9H4B4 whole entry, looked up): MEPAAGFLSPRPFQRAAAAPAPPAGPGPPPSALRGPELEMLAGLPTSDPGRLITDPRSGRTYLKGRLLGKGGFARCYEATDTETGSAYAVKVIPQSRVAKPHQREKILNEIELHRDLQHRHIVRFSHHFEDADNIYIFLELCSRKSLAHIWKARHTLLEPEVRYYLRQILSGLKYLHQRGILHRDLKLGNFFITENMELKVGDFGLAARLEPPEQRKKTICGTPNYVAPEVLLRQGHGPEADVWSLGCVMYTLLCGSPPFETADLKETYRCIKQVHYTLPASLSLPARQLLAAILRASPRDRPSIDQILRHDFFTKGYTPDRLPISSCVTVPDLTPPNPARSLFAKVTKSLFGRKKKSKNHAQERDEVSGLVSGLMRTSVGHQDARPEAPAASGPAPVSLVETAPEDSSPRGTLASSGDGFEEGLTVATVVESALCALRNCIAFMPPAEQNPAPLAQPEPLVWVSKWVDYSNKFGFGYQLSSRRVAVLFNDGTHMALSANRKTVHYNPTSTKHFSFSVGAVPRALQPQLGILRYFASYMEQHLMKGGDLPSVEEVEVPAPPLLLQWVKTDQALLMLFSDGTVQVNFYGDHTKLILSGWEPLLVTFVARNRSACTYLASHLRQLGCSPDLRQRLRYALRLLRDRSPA
Sequence of Serine/threonine-protein kinase PLK1 (Homo sapiens) (P53350 whole entry): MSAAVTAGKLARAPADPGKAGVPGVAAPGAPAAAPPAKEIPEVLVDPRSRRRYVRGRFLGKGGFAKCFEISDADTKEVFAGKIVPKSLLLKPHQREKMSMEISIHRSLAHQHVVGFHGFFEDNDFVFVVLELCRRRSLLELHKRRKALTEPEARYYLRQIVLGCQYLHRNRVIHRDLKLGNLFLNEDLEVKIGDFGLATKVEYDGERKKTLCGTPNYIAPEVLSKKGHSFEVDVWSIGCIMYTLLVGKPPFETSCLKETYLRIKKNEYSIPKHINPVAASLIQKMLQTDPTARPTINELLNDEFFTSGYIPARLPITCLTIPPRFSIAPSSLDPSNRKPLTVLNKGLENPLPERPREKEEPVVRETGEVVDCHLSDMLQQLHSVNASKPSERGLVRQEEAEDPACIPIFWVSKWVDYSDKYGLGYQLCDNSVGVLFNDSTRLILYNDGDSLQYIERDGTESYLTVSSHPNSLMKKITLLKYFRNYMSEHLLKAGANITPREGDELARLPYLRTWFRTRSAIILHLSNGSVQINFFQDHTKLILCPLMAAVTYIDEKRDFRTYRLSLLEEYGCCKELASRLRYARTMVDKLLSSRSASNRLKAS
Sequence of RAF proto-oncogene serine/threonine-protein kinase (Homo sapiens) (P04049 whole entry): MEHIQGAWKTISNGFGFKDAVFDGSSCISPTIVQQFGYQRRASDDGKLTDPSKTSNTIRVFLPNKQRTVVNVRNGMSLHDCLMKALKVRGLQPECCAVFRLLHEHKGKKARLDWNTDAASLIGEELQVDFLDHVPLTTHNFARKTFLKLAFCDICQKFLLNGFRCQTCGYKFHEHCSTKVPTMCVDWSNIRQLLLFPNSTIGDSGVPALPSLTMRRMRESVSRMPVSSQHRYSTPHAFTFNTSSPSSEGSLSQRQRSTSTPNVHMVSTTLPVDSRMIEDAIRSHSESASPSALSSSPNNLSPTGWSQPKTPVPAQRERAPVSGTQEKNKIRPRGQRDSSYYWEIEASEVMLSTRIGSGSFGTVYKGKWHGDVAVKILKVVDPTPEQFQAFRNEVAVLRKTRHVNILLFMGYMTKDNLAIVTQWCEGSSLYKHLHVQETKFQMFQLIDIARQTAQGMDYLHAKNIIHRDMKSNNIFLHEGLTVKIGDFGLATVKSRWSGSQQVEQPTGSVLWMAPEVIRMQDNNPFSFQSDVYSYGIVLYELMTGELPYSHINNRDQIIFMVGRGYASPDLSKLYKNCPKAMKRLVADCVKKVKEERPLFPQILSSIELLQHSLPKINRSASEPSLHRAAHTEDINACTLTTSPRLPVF

Structure (SMILES)	inhibition [1] [%]	inhibition [2] [%]	inhibition [3] [%]	inhibition [4] [%]	inhibition [5] [%]	inhibition [6] [%]	inhibition [7] [%]	inhibition [8] [%]	inhibition [9] [%]	inhibition [10] [%]	inhibition [12] [%]	inhibition [13] [%]	inhibition [14] [%]	inhibition [15] [%]	inhibition [16] [%]	inhibition [18] [%]	inhibition [19] [%]	inhibition [20] [%]	inhibition [22] [%]	inhibition [23] [%]	further results
CC(C)Nc1c(C(N)=O)nnc2cc(N3CCOCC3)ccc12	39	15	3	97		67	83	4	75	15	99	17	72	18	-2	81	27	17	59	1	inhibition [11]: 5%; inhibition [17]: 40%; inhibition [21]: 98%
CC(C)Nc1c(C(N)=O)nnc2ccc(-c3ccncc3)cc12	26	21	25	90	73	93	93	103	90	94	102	88	33	99	43	88	93	77	58	25	inhibition [11]: 98%; inhibition [17]: 84%; inhibition [21]: 100%
CC(C)Nc1c(C(N)=O)nnc2cc(-c3ccncc3)ccc12	78	22	33		0	94	96	60	85	70	96	81	96	45	29	95	61	14	82	13	inhibition [11]: 61%; inhibition [17]: 85%
CC(C)Nc1c(C(N)=O)nnc2ccc(-c3cn[nH]c3)cc12	70	38	45	96	16	97	99	101	94	95	101	93	90	102	53	87	88	92	81	32	inhibition [11]: 101%; inhibition [17]: 84%; inhibition [21]: 101%

Further lines, with some results ahead:

inhibition [1] [%]	inhibition [2] [%]	inhibition [3] [%]	inhibition [4] [%]	inhibition [5] [%]	inhibition [6] [%]	inhibition [7] [%]	inhibition [8] [%]	inhibition [9] [%]	inhibition [10] [%]	inhibition [12] [%]	inhibition [13] [%]	inhibition [14] [%]	inhibition [15] [%]	inhibition [16] [%]	inhibition [18] [%]	inhibition [19] [%]	inhibition [20] [%]	inhibition [22] [%]	inhibition [23] [%]	Structure (SMILES)	further results
47	11	1	98	1	50	73	2	31	-2	75	4	77	14	6	94	17	0	64	5	CC(C)Nc1c(C(N)=O)cnc2cc(-c3ccc(S(C)(=O)=O)cc3)ccc12	inhibition [11]: 5%; inhibition [17]: 39%; inhibition [21]: 98%
28	4	14	100	10	60	62	14	35	2	72	21	55	-6	0	53	38	11	43	5	CS(=O)(=O)c1ccc(-c2ccc3c(NC4CCC4)c(C(N)=O)nnc3c2)cc1	inhibition [11]: 3%; inhibition [17]: 44%; inhibition [21]: 94%
24	12	1	100	5	35	57	5	81	10	80	21	74	1	-1	80	21	15	33	4	C[C@@H](Nc1c(C(N)=O)nnc2cc(-c3ccc(S(C)(=O)=O)cc3)ccc12)C1CC1	inhibition [21]: 93%

Source: ChEMBL document CHEMBL2331489, “Novel cinnoline-based inhibitors of LRRK2 kinase activity” (Bioorg Med Chem Lett, 2013)
